Source: US20240301409A1, “Chemically Modified Small Activating RNA” (RACTIGEN THERAPEUTICS, priority 2021, published 2024)

Test system: J82 cells
Test: Cellular proliferation assay (CCK8) in J82 cells, combined with Mitomycin C or valrubicin
Type: cell-based, human
Conditions: for Combination Index (CI) / relative proliferation proportion of cells: J82 cells
Experimental: J82 cells were transfected with RAG1-40-31 at concentrations of 0.1, 0.5, 1, 5, 10, 25 and 50 nM for 24 hours, and then Mitomycin C at concentrations of 1, 10, 100, 1000 and 10000 nM was added. The combined treatment was carried out with concentrations in pairs. After treatment, the proliferation of cells was detected using CCK8 kit. FIGS. 14A-14B show the relative proliferation proportion of J82 cells after the combined treatment with chemically modified saRNA RAG1-40-31 and valrubicin. […] Control and DMSO are the blank transfection control and the solvent for dilution control, respectively.
J82 cells were transfected with RAG1-40-31 at concentrations of 0.1, 0.5, 1, 5, 10, 25 and 50 nM for 24 hours, and then valrubicin at concentrations of 1, 10, 100, 1000 and 10000 nM was added. The combined treatment was carried out with concentrations in pairs. After treatment, the cellular proliferation was detected by CCK8 kit. FIGS. 15A-15B show the relative proliferation proportion of T24 cells after the combined treatment with chemically modified saRNA RAG1-40-31 and Mitomycin C. […] Control and DMSO are the blank transfection control and the solvent for dilution control, respectively.
Human bladder cancer cells Ku-7-LG (ATCC), J82 (ATCC) and T24 (ATCC) were cultured in McCoy medium (Gibco) comprising 10% calf serum (Sigma-Aldrich) and 1% penicillin/Streptomycin (Gibco). Cells were cultured at 37° C. under 5% CO2. Ku-7-LG, J82 and T24 cells were plated into 12-well plates at 10×10^4 cells per well, transfected with the small RNA at a concentration of 10 nM (unless otherwise specified) for three days, using RNAiMax (Invitrogen, Carlsbad, CA) according to the manufacturer's instructions. Two replicate wells were set for each treatment.
Cells were plated in a 96-well plate at 2˜4×10^3 cells/well, cultured overnight, and transfected with the oligonucleotide duplexes. Three days after transfection, CCK8 (Dojindo) was used to detect cellular proliferation following manufacturer's instructions. The experimental steps are briefly described as follows: 10 μL of CCK8 solution was added to each well, incubated at 37° C. for 1 hour, and then the absorbance at 450 nm was measured using a microplate reader.
In this example, chemically modified saRNA RAG1-40-31 was used in combination with clinical chemical agents to evaluate the suppressing effect of the combined agents on cancer cells.

[1] = RAG1-40-31 0.1 nM + MMC 1000 nM

Substance: RAG1-40-31: saRNA duplex: sense fCfCAACUCAUUCUCCAAG*U*C (SEQ ID NO 16); antisense U*A*fCfUfUGGAGAAfUGAGfUfUGG*fC*A (SEQ ID NO 12) (sense CCAACUCAUUCUCCAAGUC; antisense UACUUGGAGAAUGAGUUGGCA; 2'-F and phosphorothioate modifications; modified_base (1)..(2) (1,2)=2′-fluoro; modified_base (17)..(19) (17,18,19)=phosphorothioate (PS) backbone modification; modified_base (2)..(21) (2,3,19,20,21)=phosphorothioate (PS) backbone modification; modified_base (3)..(20) (3,4,5,12,16,17,20)=2′-fluoro)
- Combination Index (CI) (RAG1-40-31 0.1 nM + MMC 1 nM): 0.08
- Combination Index (CI) (RAG1-40-31 0.1 nM + MMC 10 nM): 0.42
- Combination Index (CI) (RAG1-40-31 0.1 nM + MMC 100 nM): 0.47
- Combination Index (CI) [1]: 0.73
- Combination Index (CI) (RAG1-40-31 0.1 nM + MMC 10000 nM): 0.50
- Combination Index (CI) (RAG1-40-31 0.1 nM + valrubicin 1 nM): 0.10
- Combination Index (CI) (RAG1-40-31 0.1 nM + valrubicin 10 nM): 0.42
- Combination Index (CI) (RAG1-40-31 0.1 nM + valrubicin 100 nM): 0.85
- Combination Index (CI) (RAG1-40-31 0.1 nM + valrubicin 1000 nM): 0.18
- Combination Index (CI) (RAG1-40-31 0.1 nM + valrubicin 10000 nM): 0.19
- Combination Index (CI) (RAG1-40-31 0.5 nM + MMC 1 nM): 0.17
- Combination Index (CI) (RAG1-40-31 0.5 nM + MMC 10 nM): 0.47
- Combination Index (CI) (RAG1-40-31 0.5 nM + MMC 100 nM): 0.54
- Combination Index (CI) (RAG1-40-31 0.5 nM + MMC 1000 nM): 0.75
- Combination Index (CI) (RAG1-40-31 0.5 nM + MMC 10000 nM): 0.25
- Combination Index (CI) (RAG1-40-31 0.5 nM + valrubicin 1 nM): 0.18
- Combination Index (CI) (RAG1-40-31 0.5 nM + valrubicin 10 nM): 0.08
- Combination Index (CI) (RAG1-40-31 0.5 nM + valrubicin 100 nM): 1.31
- Combination Index (CI) (RAG1-40-31 0.5 nM + valrubicin 1000 nM): 0.14
- Combination Index (CI) (RAG1-40-31 0.5 nM + valrubicin 10000 nM): 0.11
- Combination Index (CI) (RAG1-40-31 1 nM + MMC 1 nM): 0.13
- Combination Index (CI) (RAG1-40-31 1 nM + MMC 10 nM): 0.58
- Combination Index (CI) (RAG1-40-31 1 nM + MMC 100 nM): 0.52
- Combination Index (CI) (RAG1-40-31 1 nM + MMC 1000 nM): 0.76
- Combination Index (CI) (RAG1-40-31 1 nM + MMC 10000 nM): 0.46
- Combination Index (CI) (RAG1-40-31 1 nM + valrubicin 1 nM): 0.26
- Combination Index (CI) (RAG1-40-31 1 nM + valrubicin 10 nM): 0.12
- Combination Index (CI) (RAG1-40-31 1 nM + valrubicin 100 nM): 0.30
- Combination Index (CI) (RAG1-40-31 1 nM + valrubicin 1000 nM): 0.12
- Combination Index (CI) (RAG1-40-31 1 nM + valrubicin 10000 nM): 0.11
- Combination Index (CI) (RAG1-40-31 5 nM + MMC 1 nM): 0.29
- Combination Index (CI) (RAG1-40-31 5 nM + MMC 10 nM): 0.32
- Combination Index (CI) (RAG1-40-31 5 nM + MMC 100 nM): 0.40
- Combination Index (CI) (RAG1-40-31 5 nM + MMC 1000 nM): 0.43
- Combination Index (CI) (RAG1-40-31 5 nM + MMC 10000 nM): 0.41
- Combination Index (CI) (RAG1-40-31 5 nM + valrubicin 1 nM): 0.12
- Combination Index (CI) (RAG1-40-31 5 nM + valrubicin 10 nM): 0.32
- Combination Index (CI) (RAG1-40-31 5 nM + valrubicin 100 nM): 0.61
- Combination Index (CI) (RAG1-40-31 5 nM + valrubicin 1000 nM): 0.13
- Combination Index (CI) (RAG1-40-31 5 nM + valrubicin 10000 nM): 0.06
- Combination Index (CI) (RAG1-40-31 10 nM + MMC 1 nM): 0.40
- Combination Index (CI) (RAG1-40-31 10 nM + MMC 10 nM): 0.47
- Combination Index (CI) (RAG1-40-31 10 nM + MMC 100 nM): 0.37
- Combination Index (CI) (RAG1-40-31 10 nM + MMC 1000 nM): 0.41
- Combination Index (CI) (RAG1-40-31 10 nM + MMC 10000 nM): 0.29
- Combination Index (CI) (RAG1-40-31 10 nM + valrubicin 1 nM): 0.14
- Combination Index (CI) (RAG1-40-31 10 nM + valrubicin 10 nM): 0.22
- Combination Index (CI) (RAG1-40-31 10 nM + valrubicin 100 nM): 0.37
- Combination Index (CI) (RAG1-40-31 10 nM + valrubicin 1000 nM): 0.11
- Combination Index (CI) (RAG1-40-31 10 nM + valrubicin 10000 nM): 0.04
- Combination Index (CI) (RAG1-40-31 25 nM + MMC 1 nM): 0.32
- Combination Index (CI) (RAG1-40-31 25 nM + MMC 10 nM): 0.50
- Combination Index (CI) (RAG1-40-31 25 nM + MMC 100 nM): 0.37
- Combination Index (CI) (RAG1-40-31 25 nM + MMC 1000 nM): 0.28
- Combination Index (CI) (RAG1-40-31 25 nM + MMC 10000 nM): 0.09
- Combination Index (CI) (RAG1-40-31 25 nM + valrubicin 1 nM): 0.14
- Combination Index (CI) (RAG1-40-31 25 nM + valrubicin 10 nM): 0.10
- Combination Index (CI) (RAG1-40-31 25 nM + valrubicin 100 nM): 0.16
- Combination Index (CI) (RAG1-40-31 25 nM + valrubicin 1000 nM): 0.05
- Combination Index (CI) (RAG1-40-31 25 nM + valrubicin 10000 nM): 0.02
- relative proliferation proportion of cells (RAG1-40-31 25 nM and 50 nM + Mitomycin C 1, 10, 100, 1000 and 10000 nM): lower than 26%
- relative proliferation proportion of cells (RAG1-40-31 25 nM and 50 nM + Valrubicin 1, 10, 100, 1000 and 10000 nM): lower than 30%
- Combination Index (CI) (RAG1-40-31 50 nM + MMC 1 nM): 0.96
- Combination Index (CI) (RAG1-40-31 50 nM + MMC 10 nM): 0.98
- Combination Index (CI) (RAG1-40-31 50 nM + MMC 100 nM): 0.44
- Combination Index (CI) (RAG1-40-31 50 nM + MMC 1000 nM): 0.19
- Combination Index (CI) (RAG1-40-31 50 nM + MMC 10000 nM): 0.15
- Combination Index (CI) (RAG1-40-31 50 nM + valrubicin 1 nM): 0.11
- Combination Index (CI) (RAG1-40-31 50 nM + valrubicin 10 nM): 0.14
- Combination Index (CI) (RAG1-40-31 50 nM + valrubicin 100 nM): 0.22
- Combination Index (CI) (RAG1-40-31 50 nM + valrubicin 1000 nM): 0.09
- Combination Index (CI) (RAG1-40-31 50 nM + valrubicin 10000 nM): 0.02
- relative proliferation proportion of cells (RAG1-40-31 0.1-50 nM + Mitomycin C 100, 1000 and 10000 nM): lower than 35%
- relative proliferation proportion of cells (RAG1-40-31 0.1-50 nM + Valrubicin 1000 nM and 10000 nM): lower than 30%
- relative proliferation proportion of cells (RAG1-40-31 5-50 nM + Mitomycin C 1, 10, 100, 1000 and 10000 nM): lower than 43%
- effect of combined use with Mitomycin C or valrubicin, in words (J82 tumor cells): synergistic effect
- Relative proliferation proportion of J82 cells (RAG1-40-31 0.1 nM + MMC 1 nM): 74.3%
- Relative proliferation proportion of J82 cells (RAG1-40-31 0.1 nM + MMC 10 nM): 71.5%
- Relative proliferation proportion of J82 cells (RAG1-40-31 0.1 nM + MMC 100 nM): 32.9%
- Relative proliferation proportion of J82 cells [1]: 10.8%
